Assay results from patent publication US10206907B2, “Compounds useful for the treatment of degenerative and inflammatory diseases” (GALAPAGOS NV, priority 2008, dated 2019).

Tests used:
[1] = Microsomal stability, rat liver microsomes; type: in vitro ADME; conditions: percentage of compound remaining after 60 minutes, 3 μM compound
Description: (§1) 40 μL of deionised water was added to a well of a polypropylene Matrix 2D barcode labelled storage tube (Thermo Scientific) and pre-incubated at 37° C.
(§2) A co-factor containing MgCl2, glucose-6-phosphate and NADP+ was prepared in deionised water and placed on ice before use.
(§3) A final working solution containing liver microsomes (Xenotech of a species of interest (human, mouse, rat, dog), previously described G6PDH and co-factors was prepared and this mix was incubated for no longer than 20 minutes at room temperature.
(§4) 30 μL of the pre-heated compound dilution was added to 40 μL of pre-heated water in the Matrix tubes and 30 μL of the microsomal mix was added.
(§5) To measure percentage remaining of compound at time zero MeOH or ACN was added (1:1) to the well before adding the microsomal mix.
(§6) The samples which were not stopped are incubated at 37° C., 300 rpm and after 1 hour of incubation the reaction was stopped with MeOH or ACN (1:1).
(§7) After stopping the reaction the samples were mixed and placed on ice for 30 min to precipitate the proteins.
(§8) The samples were analyzed on LCMS with a flow rate of 1 mL/min. Solvent A was 15 mM ammonia and solvent B was methanol or acetonitrile, depending on the stop solution used. […] The percentage remaining after 1 hour incubation was calculated from time 0 and was calculated as the percentage remaining.
(§9) The data on microsomal stability are expressed as a percentage of the total amount of compound remaining after 60 minutes.

[2] = Microsomal stability, human liver microsomes; type: in vitro ADME; conditions: percentage of compound remaining after 60 minutes, 3 μM compound
Description: as §1, §2, §3, §4, §5, §6, §7, §8, §9

[3] = biological target: Recombinant human JAK1 catalytic domain (Homo sapiens (Human), UniProt P23458); assay: JAK1 inhibition assay; type: biochemical; conditions: semi-quantitative score
Chain of Recombinant human JAK1 catalytic domain (P23458 850-1154): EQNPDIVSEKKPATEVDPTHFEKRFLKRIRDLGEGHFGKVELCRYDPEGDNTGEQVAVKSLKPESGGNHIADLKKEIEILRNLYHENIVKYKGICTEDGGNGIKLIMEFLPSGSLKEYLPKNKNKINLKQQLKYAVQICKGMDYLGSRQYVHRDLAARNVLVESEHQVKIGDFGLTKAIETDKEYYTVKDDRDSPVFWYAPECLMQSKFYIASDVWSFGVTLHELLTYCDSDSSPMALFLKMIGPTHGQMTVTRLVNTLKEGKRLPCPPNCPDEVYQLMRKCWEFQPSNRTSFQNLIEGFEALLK
In short: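 Radiometric assay read by scintillation counting after phosphoric-acid washes. Percent inhibition calculated from cpm relative to vehicle and 10 μM staurosporine control. IC50 derived from compound dose-dilution series.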

[4] = tested on: JAK-STAT signalling in HeLa cells; assay: JAK-STAT signalling assay (OSM-triggered pSTAT1(2)-luciferase reporter in HeLa cells); type: cell-based; conditions: Homo sapiens; HeLa cells, OSM-triggered pSTAT1(2)-luciferase reporter; read-out: STAT signalling EC50
Description: HeLa cells were maintained in Dulbecco's Modified Eagle's Medium (DMEM) containing 10% heat inactivated fetal calf serum, 100 U/mL penicillin and 100 μg/mL streptomycin. HeLa cells were used at 70% confluence for transfection. 20,000 cells in 87 μL cell culture medium were transiently transfected with 40 ng pSTAT1(2)-luciferase reporter (Panomics), 8 ng of LacZ reporter as internal control reporter and 52 ng of pBSK using 0.32 μL Jet-PEI (Polyplus) as transfection reagent per well in 96-well plate format. After overnight incubation at 37° C., 10% CO2, transfection medium was removed.
40 μL of cell lysate was used to read β-galactosidase activity by adding 180 μL βGal solution (30 μl ONPG 4 mg/mL+150 μL β-Galactosidase buffer (0.06 M Na2HPO4, 0.04 M NaH2PO4, 1 mM MgCl2)) for 20 min.
Luciferase activity was measured using 40 μL cell lysate plus 40 μl of Steadylite® as described by the manufacturer (Perkin Elmer), on the Envision (Perkin Elmer).
The positive and negative controls were used to calculate z’ and ‘percent inhibition’ (PIN) values.
PIN values were plotted for compounds tested in dose-response and EC50 values were derived.

MMP13 in SW1353 cells = assay: OSM/IL-1β signaling assay (MMP13 levels in SW1353 cells); type: cell-based; conditions: Homo sapiens; SW1353 cells, OSM and IL-1β triggered, MMP13 levels 48 hours after triggering; read-out: MMP13 EC50;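 note: secreted MMP13 captured by antibody, activated with APMA and its activity read by fluorescence, inhibition scaled between vehicle-treated triggered wells (0%) and untriggered wells (100%)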
[5] = biological target: Recombinant human JAK2 catalytic domain (Homo sapiens (Human), UniProt O60674); assay: JAK2 inhibition assay; type: biochemical; conditions: semi-quantitative score
Chain of Recombinant human JAK2 catalytic domain (O60674 808-1132): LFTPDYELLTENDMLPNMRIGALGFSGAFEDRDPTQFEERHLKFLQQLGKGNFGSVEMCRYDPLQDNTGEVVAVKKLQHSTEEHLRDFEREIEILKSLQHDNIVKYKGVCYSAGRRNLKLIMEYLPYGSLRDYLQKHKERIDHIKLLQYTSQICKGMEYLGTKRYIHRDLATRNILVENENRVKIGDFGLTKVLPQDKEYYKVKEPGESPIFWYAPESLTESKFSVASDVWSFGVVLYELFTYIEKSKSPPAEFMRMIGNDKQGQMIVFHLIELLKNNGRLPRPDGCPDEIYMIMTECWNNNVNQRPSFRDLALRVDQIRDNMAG
In short: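 Radiometric kinase reactions ran for 90 min at 30 °C and were stopped with phosphoric acid, then washed and counted by scintillation. Percent inhibition was set relative to vehicle and to 10 μM staurosporine background. IC50 was derived from dose-dilution series.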

| Microsomal Stability Rat (%) [1] | Microsomal Stability Human (%) [2] | IC50 [3] [µM] | EC50 [4] [µM] | EC50 (MMP13 in SW1353 cells) [µM] | IC50 [5] [µM] | SMILES |
| --- | --- | --- | --- | --- | --- | --- |
|  |  | 0.101 to 0.5 | > 1 | > 1 | 0.101 to 0.5 | O=C(NC1CCCCC1)c1ccc(-c2cccc3nc(NC(=O)C4CC4)nn23)cc1 [Compound 26, N-cyclohexyl-4-(2-(cyclopropanecarboxamido)-[1,2,4]triazolo[1,5-a]pyridin-5-yl)benzamide] |
|  |  | 0.101 to 0.5 | > 1 | > 1 | > 1 | O=C(Nc1nc2cccc(-c3ccc(C(=O)N4CCCNCC4)cc3)n2n1)C1CC1 [Compound 28, N-(5-(4-(1,4-diazepane-1-carbonyl)phenyl)-[1,2,4]triazolo[1,5-a]pyridin-2-yl)cyclopropanecarboxamide] |
| * (* 0-25) | * (* 0-25) | < 0.1 | > 1 |  |  | CN(Cc1ccccc1)c1ccc(-c2cccc3nc(NC(=O)C4CC4)nn23)cc1 [Compound 157, N-(5-(4-(benzyl(methyl)amino)phenyl)-[1,2,4]triazolo[1,5-a]pyridin-2-yl)cyclopropanecarboxamide] |
|  |  | < 0.1 | > 1 | > 1 | 0.101 to 0.5 | O=C(Nc1cccnn1)c1ccc(-c2cccc3nc(NC(=O)C4CC4)nn23)cc1 [Compound 221, 4-[2-(Cyclopropanecarbonyl-amino)-[1,2,4]triazolo[1,5-a]pyridin-5-yl]-N-pyridazin-3-yl-benzamide] |
|  |  | < 0.1 | > 1 | > 1 | 0.101 to 0.5 | O=C(Nc1nc2cccc(-c3ccc(C(=O)N4CCCC(O)C4)cc3)n2n1)C1CC1 (centres unmarked) [Compound 270, Cyclopropanecarboxylic acid {5-[4-(3-hydroxy-piperidine-1-carbonyl)-phenyl]-[1,2,4]triazolo[1,5-a]pyridin-2-yl)-amide] |
|  |  | < 0.1 | > 1 | > 1 | 0.101 to 0.5 | NC(=O)C1CCCCN1C(=O)c1ccc(-c2cccc3nc(NC(=O)C4CC4)nn23)cc1 (centres unmarked) [Compound 275, 1-{4-[2-(Cyclopropanecarbonyl-amino)-[1,2,4]triazolo[1,5-a]pyridin-5-yl]-benzoyl}-piperidine-2-carboxylic acid amide] |
|  |  | < 0.1 | > 1 | > 1 | 0.101 to 0.5 | O=C(Nc1nc2cccc(-c3ccc(C(=O)N4CCCC(CO)C4)cc3)n2n1)C1CC1 (centres unmarked) [Compound 276, Cyclopropanecarboxylic acid {5-[4-(3-hydroxymethyl-piperidine-1-carbonyl)-phenyl]-[1,2,4]triazolo[1,5-a]pyridin-2-yl}-amide] |

The remaining lines, values behind:

| SMILES | Microsomal Stability Rat (%) [1] | Microsomal Stability Human (%) [2] | IC50 [3] [µM] | EC50 [4] [µM] | EC50 (MMP13 in SW1353 cells) [µM] | IC50 [5] [µM] |
| --- | --- | --- | --- | --- | --- | --- |
| O=C(NC1CC1)c1ccc(-c2cccc3nc(NC(=O)C4CC4)nn23)cc1 [Compound 11, 4-(2-(cyclopropanecarboxamido)-[1,2,4]triazolo[1,5-a]pyridin-5-yl)-N-cyclopropylbenzamide] | **** (**** 76-100) | **** (**** 76-100) | 0.101 to 0.5 |  |  |  |
| O=C(Nc1ccc(-c2cccc3nc(NC(=O)C4CC4)nn23)cc1)c1ccc(C(F)(F)F)cc1 [Compound 22, N-(4-(2-(cyclopropanecarboxamido)-[1,2,4]triazolo[1,5-a]pyridin-5-yl)phenyl)-4-(trifluoromethyl)benzamide] |  |  | 0.101 to 0.5 | > 1 | > 1 | 0.101 to 0.5 |
| CC(C)(C)C1CCN(C(=O)c2ccc(-c3cccc4nc(NC(=O)C5CC5)nn34)cc2)CC1 [Compound 27, N-(5-(4-(4-tert-butylpiperidine-1-carbonyl)phenyl)-[1,2,4]triazolo[1,5-a]pyridin-2-yl)cyclopropanecarboxamide] |  |  | 0.101 to 0.5 | > 1 | > 1 | 0.501 to 1 |
| COc1ccc(CN(C)C(=O)c2ccc(-c3cccc4nc(NC(=O)C5CC5)nn34)cc2)cc1 [Compound 31, 4-(2-(cyclopropanecarboxamido)-[1,2,4]triazolo[1,5-a]pyridin-5-yl)-N-(4-methoxybenzyl)-N-methylbenzamide] |  |  | < 0.1 | > 1 | > 1 | 0.101 to 0.5 |
| COc1ccc(NC(=O)c2ccc(-c3cccc4nc(NC(=O)C5CC5)nn34)cc2)cn1 [Compound 203, 4-[2-(Cyclopropanecarbonyl-amino)-[1,2,4]triazolo[1,5-a]pyridin-5-yl]-N-(6-methoxy-pyridin-3-yl)-benzamide] | *** (*** 51-75) | * (* 0-25) | < 0.1 | > 1 |  | 0.101 to 0.5 |
| O=C(Nc1ccc(N2CCOCC2)nc1)c1ccc(-c2cccc3nc(NC(=O)C4CC4)nn23)cc1 [Compound 204, 4-[2-(Cyclopropanecarbonyl-amino)-[1,2,4]triazolo[1,5-a]pyridin-5-yl]-N-(6-morpholin-4-yl-pyridin-3-yl)-benzamide] | * (* 0-25) | * (* 0-25) | < 0.1 | > 1 |  |  |
| O=C(Nc1nc2cccc(-c3ccc(CNc4cccnn4)cc3)n2n1)C1CC1 [Compound 222, Cyclopropanecarboxylic acid {5-[4-(pyridazin-3-ylaminomethyl)-phenyl]-[1,2,4]triazolo[1,5-a]pyridin-2-yl}-amide] |  |  | < 0.1 | > 1 | > 1 | 0.101 to 0.5 |
| O=C(Nc1nc2cccc(-c3ccc(CNc4cccnc4)cc3)n2n1)C1CC1 [Compound 223, Cyclopropanecarboxylic acid {5-[4-(pyridin-3-ylaminomethyl)-phenyl]-[1,2,4]triazolo[1,5-a]pyridin-2-yl}-amide] |  |  | < 0.1 | > 1 | > 1 | 0.501 to 1 |
| O=C(Nc1nc2cccc(-c3ccc(CN4CCOC(c5ccccc5)C4)cc3)n2n1)C1CC1 (centres unmarked) [Compound 231] |  |  | < 0.1 | > 1 | 0.001 to 0.5 | 0.101 to 0.5 |
| O=C(Nc1nc2cccc(-c3ccc(COc4ccccc4)cc3)n2n1)C1CC1 [Compound 238, Cyclopropanecarboxylic acid [5-(4-phenoxymethyl-phenyl)-[1,2,4]triazolo[1,5-a]pyridin-2-yl]-amide] |  |  | < 0.1 | 0.501 to 1 | > 1 | < 0.1 |
| CN(C)C1CCN(C(=O)c2ccc(-c3cccc4nc(NC(=O)C5CC5)nn34)cc2)C1 (centres unmarked) [Compound 289, Cyclopropanecarboxylic acid {5-[4-(3-dimethylamino-pyrrolidine-1-carbonyl)-phenyl]-[1,2,4]triazolo[1,5-a]pyridin-2-yl}-amide] |  |  | < 0.1 | > 1 | > 1 | 0.501 to 1 |
| O=C(Nc1nc2cccc(-c3ccc(C(=O)N4CCC(COc5cccnc5)CC4)cc3)n2n1)C1CC1 [Compound 292, Cyclopropanecarboxylic acid (5-{4-[4-(pyridin-3-yloxymethyl)-piperidine-1-carbonyl]-phenyl}-[1,2,4]triazolo[1,5-a]pyridin-2-yl)-amide] |  |  | < 0.1 | > 1 | > 1 | 0.101 to 0.5 |
| O=C(Nc1nc[nH]n1)c1ccc(-c2cccc3nc(NC(=O)C4CC4)nn23)cc1 [Compound 331, 4-[2-(Cyclopropanecarbonyl-amino)-[1,2,4]triazolo[1,5-a]pyridin-5-yl]-N-(1H-1,2,4-triazol-3-yl)-benzamide] | * (* 0-25) | * (* 0-25) | 0.101 to 0.5 |  |  | < 0.1 |
